Measurements: ChEMBL document CHEMBL3632522, “Novel 3,4-methylenedioxyde-6-X-benzaldehyde-thiosemicarbazones: Synthesis and antileishmanial effects against Leishmania amazonensis” (Eur J Med Chem, 2015)
Calls of active or inactive are those of the source. The calls are words filed in the database; no cut-off is given here.

Assays:
Leishmania amazonensis [1] = experiment: Antileishmanial activity against Leishmania amazonensis MHOM/BR/77/LTB0016 assessed as inhibition of parasite growth incubated for 72 hrs by MTT assay; type: functional, organism-based; conditions: for IC50: MHOM/BR/77/LTB0016, 72 h
Leishmania amazonensis [2] = experiment: Antileishmanial activity against Leishmania amazonensis Leishmania amazonensis MHOM/BR/77/LTB0016 intracellular amastigotes infected in BALB/c mouse macrophages incubated for 72 hrs by microscopy; type: functional, organism-based; conditions: MHOM/BR/77/LTB0016, 72 h
[3] = Selectivity index, ratio of LD50 for BALB/c mouse peritoneal macrophages to IC50 for Leishmania amazonensis MHOM/BR/77/LTB0016 intracellular amastigotes infected in BALB/c mouse peritoneal macrophages
[4] = Cytotoxicity against BALB/c mouse peritoneal macrophages infected with Leishmania amazonensis MHOM/BR/77/LTB0016 intracellular amastigotes assessed as cell viability at 12.5 to 100 uM after 72 hrs by resazurin staining based optical microscopy; conditions: peritoneal macrophage cell
[5] = Cytotoxicity against BALB/c mouse peritoneal macrophages assessed as cell viability after 72 hrs by resazurin assay; type: cell-based, Peritoneal macrophage cell; conditions: read-out: LD50
Leishmania amazonensis [6] = experiment: Antileishmanial activity against Leishmania amazonensis Leishmania amazonensis MHOM/BR/77/LTB0016 intracellular amastigotes infected in BALB/c mouse macrophages at 12.5 to 100 uM incubated for 72 hrs by optical microscopy; type: functional, organism-based

SMILES | inhibition (Leishmania amazonensis [1]) | IC50 (Leishmania amazonensis [1]) [µM] | IC50 (Leishmania amazonensis [2]) [µM] | Ratio LD50/IC50 [3] | Activity [4] | CC50 at 72 h [5] [µM] | Activity (Leishmania amazonensis [6])
NC(=S)N/N=C/c1cc2c(cc1Cl)OCO2 | Dose-dependent effect | 244 | – | – | – | – | –
NC(=S)N/N=C/c1cc2c(cc1I)OCO2 | Dose-dependent effect | 20.7 | 22 | >5.7 | Non-toxic | > 125 | Active
NC(=S)N/N=C/c1ccc2c(c1)OCO2 | Dose-dependent effect | 79.7 | – | – | – | – | –
N#Cc1cc2c(cc1/C=N/NC(N)=S)OCO2 | Dose-dependent effect | 16.4 | 17 | >7.4 | Non-toxic | > 125 | Active
NC(=S)N/N=C/c1cc2c(cc1[N+](=O)[O-])OCO2 | Dose-dependent effect | 271 | – | – | – | – | –
N=C(N)c1ccc(OCCCCCOc2ccc(C(=N)N)cc2)cc1 [PENTAMIDINE] | Dose-dependent effect | 4.8 | 1.9 | 4.5 | – | 8.5 | –
NC(=S)N/N=C/c1cc2c(cc1F)OCO2 | Dose-dependent effect | 197 | – | – | – | – | –
NC(=S)N/N=C/c1cc2c(cc1NC(=O)CCl)OCO2 | Dose-dependent effect | 256 | – | – | – | – | –
NC(=S)N/N=C/c1cc2c(cc1Br)OCO2 | Dose-dependent effect | 202 | – | – | – | – | –
NC(=S)N/N=C/c1cc2c(cc1O)OCO2 | Dose-dependent effect | 53 | – | – | – | – | –
NC(=S)N/N=C/c1cc2c(cc1N)OCO2 | Dose-dependent effect | 119 | – | – | – | – | –
